Test systems include SW-620 colon; RXF 393 renal; A549 NSCLC; OVCAR-8 ovarian; M14 melanoma; KM12 colon; NCI/ADR-RES ovarian; SNB-75 CNS; U251 CNS; HCT-116 colon; UACC-62 melanoma; HL-60(TB) leukemia; PC-3 prostate; SF-539 CNS; T-47D breast; IGROV1 ovarian; SK-MEL-2 melanoma; NCI-H226 lung.
What all share (test): growth of human tumour cells (NCI), 48 h

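Cultured in 96-well plates, cells were exposed to test compound for 48 hours across five concentrations. Definition used: TGI = concentration required for complete inhibition of growth.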

The record followed here is PubChem BioAssay (NCI).

As for `COC(=O)c1ccc(/C=C2\Cc3ccccc3C2=O)cc1`, the TGI in the assay on SW-620 colon, in the assay with RXF 393 renal, in the assay on A549 NSCLC, with OVCAR-8 ovarian, in the assay on M14 melanoma and with KM12 colon was above 100 µM each time. Also, the TGI in the assay with NCI/ADR-RES ovarian, with SNB-75 CNS, with U251 CNS, with HCT-116 colon, in the assay on UACC-62 melanoma and in the assay on HL-60(TB) leukemia was above 100 µM in each case. The TGI in the assay on PC-3 prostate, in the assay on SF-539 CNS and in the assay on T-47D breast was above 100 µM each time.
Turning to `Cc1cc(C)c(S(=O)(=O)N(CCCCCCN)OCCCN)c(C)c1`, the TGI is 40.4 µM with SW-620 colon; above 100 µM in the assay on A549 NSCLC; 27.9 µM in the assay with OVCAR-8 ovarian; 44.9 µM in the assay on M14 melanoma; 29.6 µM in the assay on IGROV1 ovarian; 32.1 µM with KM12 colon. Also, the TGI in the assay with NCI/ADR-RES ovarian is above 100 µM; with SNB-75 CNS, 22.8 µM; in the assay with U251 CNS it was 32.6 µM; in the assay with SK-MEL-2 melanoma, 36 µM; in the assay on HCT-116 colon, 31.7 µM; in the assay with NCI-H226 lung, 86.5 µM. The TGI stood at 40 µM with UACC-62 melanoma; 33.3 µM with HL-60(TB) leukemia; 28.1 µM in the assay on PC-3 prostate; 34.2 µM in the assay on SF-539 CNS; 37.4 µM in the assay on T-47D breast.
For the molecule `CN(C(=O)[C@@H](NC(=O)OC(C)(C)C)c1ccccc1)[C@H]1CCCC[C@@H]1N1CCCC1`, the TGI in the assay on SW-620 colon, with A549 NSCLC, with OVCAR-8 ovarian, with M14 melanoma, in the assay with IGROV1 ovarian and in the assay on KM12 colon was above 100 µM each time. In addition, the TGI in the assay with NCI/ADR-RES ovarian, in the assay with U251 CNS, in the assay on SK-MEL-2 melanoma, in the assay with HCT-116 colon, in the assay on NCI-H226 lung and in the assay on UACC-62 melanoma was above 100 µM in each case. Also, the TGI with HL-60(TB) leukemia, in the assay on PC-3 prostate, with SF-539 CNS and in the assay with T-47D breast was above 100 µM throughout.
Take `OC12CC3c4ccccc4NC3C3Oc4cccc5c4C31CCN(CC1CC1)C2C5` (stereo unspecified): the TGI was 39.1 µM in the assay with SW-620 colon; 27.7 µM in the assay on RXF 393 renal; 38.3 µM with A549 NSCLC; 32.3 µM in the assay on OVCAR-8 ovarian; 33.8 µM in the assay on M14 melanoma; 29.8 µM in the assay on IGROV1 ovarian. Besides, the TGI in the assay with KM12 colon is 37.3 µM; in the assay on NCI/ADR-RES ovarian, 47.4 µM; in the assay with SNB-75 CNS, 31.5 µM; in the assay with U251 CNS, 31.1 µM; in the assay with SK-MEL-2 melanoma, 35 µM; with HCT-116 colon it was 33.5 µM. Also, the TGI in the assay on NCI-H226 lung worked out at 74.9 µM; with UACC-62 melanoma it was 33.3 µM; in the assay with PC-3 prostate, 32.1 µM; in the assay on SF-539 CNS it was 90.5 µM; in the assay on T-47D breast, 42.6 µM.
For the molecule `COc1cc(CNc2nc3ccccc3n2Cc2ccccc2)cc(CN2CCOCC2)c1O`, the TGI with SW-620 colon is above 100 µM; with RXF 393 renal, 47.7 µM; in the assay on A549 NSCLC, above 100 µM; in the assay on OVCAR-8 ovarian, above 100 µM; with M14 melanoma it was 40.4 µM; with IGROV1 ovarian, above 100 µM. For the same molecule, the TGI in the assay on KM12 colon was above 100 µM; in the assay on NCI/ADR-RES ovarian it was 65.6 µM; in the assay with SNB-75 CNS, 83.9 µM; in the assay with U251 CNS, 93.1 µM; in the assay on SK-MEL-2 melanoma, 47.5 µM; in the assay on HCT-116 colon, 41.7 µM. For the same molecule, the TGI with NCI-H226 lung was 82.8 µM; in the assay on UACC-62 melanoma it was 45.2 µM; in the assay with PC-3 prostate, 99.5 µM; in the assay with SF-539 CNS it was 34.5 µM; with T-47D breast it was above 100 µM.
With `Cc1ccc(S(=O)(=O)NC(=O)NC(C(=O)O)C(C)O)cc1` (stereo unspecified), the TGI with SW-620 colon, in the assay with RXF 393 renal, in the assay with A549 NSCLC, in the assay on OVCAR-8 ovarian, with M14 melanoma and with IGROV1 ovarian was above 100 µM in each case. The TGI with KM12 colon, in the assay on NCI/ADR-RES ovarian, in the assay on SNB-75 CNS, in the assay with U251 CNS, with SK-MEL-2 melanoma and in the assay with HCT-116 colon was above 100 µM throughout. Besides, the TGI in the assay with UACC-62 melanoma, in the assay with HL-60(TB) leukemia, with PC-3 prostate, in the assay on SF-539 CNS and with T-47D breast was above 100 µM throughout.
As for `CCOC(=O)c1c(C)noc1/N=N/N(CCO)CCO`, the TGI in the assay with SW-620 colon is above 100 µM; in the assay with RXF 393 renal it was 50.3 µM; in the assay on A549 NSCLC, above 100 µM; with OVCAR-8 ovarian it was above 100 µM; in the assay with M14 melanoma, above 100 µM; with IGROV1 ovarian, above 100 µM. The TGI in the assay on KM12 colon is above 100 µM; with NCI/ADR-RES ovarian, above 100 µM; in the assay with SNB-75 CNS it was 46.1 µM; in the assay with U251 CNS, above 100 µM; with HCT-116 colon, above 100 µM; in the assay on NCI-H226 lung, 63.5 µM. The TGI was above 100 µM in the assay on UACC-62 melanoma, above 100 µM in the assay with HL-60(TB) leukemia, above 100 µM with PC-3 prostate and 39.7 µM in the assay with T-47D breast.
Regarding `NC(N)=NCc1ccc2c(c1)OCO2`, the TGI with SW-620 colon, in the assay with RXF 393 renal, with A549 NSCLC, in the assay on M14 melanoma, in the assay with IGROV1 ovarian and in the assay with KM12 colon was above 100 µM in each case. The TGI in the assay on NCI/ADR-RES ovarian, with SNB-75 CNS, with U251 CNS, with SK-MEL-2 melanoma, in the assay on HCT-116 colon and in the assay on UACC-62 melanoma was above 100 µM in each case. In addition, the TGI in the assay with HL-60(TB) leukemia, in the assay on PC-3 prostate, with SF-539 CNS and in the assay with T-47D breast was above 100 µM in each case.
